Assay results from patent US20100035858A1, “Novel Compositions and Methods for Binding and Inhibiting 5-HT4 Receptor” (Immune Control, Inc., priority 2008, published 2010).
Entries after “also recorded” stand apart in the source; their conditions may differ. Like-named read-outs stand apart in the source and are kept apart here.

Assays:
MDR1-MDCK [1] = test: MDR1-MDCK Permeability (potential to cross the blood-brain barrier); settings: for Brain Penetration Classification: from A-B Papp and efflux ratio
[2] = system: B-cell neoplastic cell line RPMI 8226; test: Inhibition of proliferation of RPMI cells; assay type: cell-based; settings: RPMI cell viability, FIG. 1
Text: The next set of experiments was designed to assess compounds that have low levels of brain penetration for the ability of the test compounds to inhibit cellular proliferation. An exemplary in vitro assay is to screen for the ability of the test compounds to inhibit proliferation of the B-cell neoplastic cell line RPMI 8226 (a plasmacytoma derived from a multiple myeloma patient (Matsuoka, et al., 1967, Proc. Soc. Exp. Biol. Med. 125: 1246-1250). However other cell line can be used such as, U266 (established from an IgE-secreting myeloma patient (Nilsson, et al., 1970, Clin. Exp. Immunol., 7: 477-489) and ARH77 (an EBV transformed plasma cell leukemia (Burk, et al., 1978, Cancer Res. 38: 2508-2513).
FIG. 1 is a graph depicting the effects on the test compounds on RPMI cell viability.

[3] = system: rat model of collagen-induced arthritis; test: Rat model of collagen-induced arthritis, ankle diameter; assay type: in vivo; settings: for reduction of ankle diameter: 10 mg/kg ip daily, about 3 days, caliper measurement; for efficacy in reducing ankle diameter compared with Enbrel: rheumatoid arthritis rat model, versus Enbrel
Procedure: The next set of experiments was designed to test the ability of the compounds of the invention on a rat model of collagen-induced arthritis. Briefly, Female Lewis rats were immunized with bovine type 2 collagen 2 mg/mL in 0.01N HAc mixed 1:1 w/ FIA injected id 0.1 mL at each of three sites on back (Rosloniec, E. F., A. H. Kang, L. K. Myers, M. A. Cremer. 1996. Collagen-induced arthritis. R. Coico, and E. Shevach, eds. Current Protocols in Immunology 15.5.1. Weily & Sons, New York.).
FIG. 2 depicts a schematic of the collagen-induced arthritis protocol. Briefly, a test compound of the invention is delivered ip at 10 mg/kg daily, for about 3 days.
FIG. 4 depicts ICI 1260, 1259, 848, 849, 761, 715, and 847 with respect to Enbrel. Additional testing for the effectiveness of compounds ICI 1260, 1259, 848, 849, 761, 715, and 847 at various concentrations (10 mg/kg, 2 mg/kg, 0.4 mg/kg) were conducted, as illustrated in FIGS. 5A-5G. A dose response curve was constructed to illustrate the efficacy of the seven compounds (FIG. 6).

Female Lewis rats = test: Toxicity in Female Lewis rats; assay type: in vivo; settings: 100 mg/kg ip, in comparison with PBS control
Procedure: The next set of experiments was designed to determine the toxicity of the compounds. Each compound was administered to Female Lewis rats at a dose of 100 mg/kg via ip administration.

[4] = target: histamine type 1 receptor (Homo sapiens, UniProt P35367); test: Binding to non-5-HT receptors: histamine type 1 receptor; settings: FIG. 12
histamine type 1 receptor, sequence (P35367 whole entry): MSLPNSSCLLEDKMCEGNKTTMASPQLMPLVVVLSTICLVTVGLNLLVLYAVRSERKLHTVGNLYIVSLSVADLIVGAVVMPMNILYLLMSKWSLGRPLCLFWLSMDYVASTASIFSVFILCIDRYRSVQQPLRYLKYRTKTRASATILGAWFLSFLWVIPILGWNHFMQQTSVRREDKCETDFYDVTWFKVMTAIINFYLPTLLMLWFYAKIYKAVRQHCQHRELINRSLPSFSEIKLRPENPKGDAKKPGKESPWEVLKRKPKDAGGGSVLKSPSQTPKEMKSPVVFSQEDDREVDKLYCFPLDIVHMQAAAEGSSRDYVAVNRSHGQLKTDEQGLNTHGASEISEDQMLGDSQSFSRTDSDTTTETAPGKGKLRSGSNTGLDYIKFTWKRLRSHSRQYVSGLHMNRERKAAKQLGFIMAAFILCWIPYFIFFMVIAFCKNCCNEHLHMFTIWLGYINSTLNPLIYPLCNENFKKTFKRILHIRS
Procedure: (§1) The methods employed in this study have been adapted from the scientific literature to maximize reliability and reproducibility. Where presented, IC50 values were determined by a non-linear, least squares regression analysis using the DATA ANALYSIS TOOLBOX (MDL Information Systems, San Leandro, Calif., USA). Where inhibition constants (Ki) are presented, the Ki values were calculated using the equation of Cheng and Prusoff (Cheng, Y., Prusoff, W. H., Biochem. Pharmacol. 22:3099-3108, 1973) or equivalent using the observed IC50 of the tested compound, the concentration of ligand employed in the assay, and historical values for the KD of the ligand.
The next set of experiments was designed to assess the selective binding of the test compounds to non-5-HT receptors. The compounds tested are as follows: ICI-735, 848, 849, 1259, and 1260. […] It was also observed that the compounds that bound well to 5-HT4 receptor also bound well to histamine type 1 receptor.

MDR1-MDCK [5] = system: MDR1-MDCK
5-HT1A receptor = target: T1, 5-HT1A receptor (Homo sapiens, UniProt P08908); test: 5-HT1A receptor binding; settings: versus fluphenazine (ICI-1175), FIG. 8
T1 sequence (P08908 1-422): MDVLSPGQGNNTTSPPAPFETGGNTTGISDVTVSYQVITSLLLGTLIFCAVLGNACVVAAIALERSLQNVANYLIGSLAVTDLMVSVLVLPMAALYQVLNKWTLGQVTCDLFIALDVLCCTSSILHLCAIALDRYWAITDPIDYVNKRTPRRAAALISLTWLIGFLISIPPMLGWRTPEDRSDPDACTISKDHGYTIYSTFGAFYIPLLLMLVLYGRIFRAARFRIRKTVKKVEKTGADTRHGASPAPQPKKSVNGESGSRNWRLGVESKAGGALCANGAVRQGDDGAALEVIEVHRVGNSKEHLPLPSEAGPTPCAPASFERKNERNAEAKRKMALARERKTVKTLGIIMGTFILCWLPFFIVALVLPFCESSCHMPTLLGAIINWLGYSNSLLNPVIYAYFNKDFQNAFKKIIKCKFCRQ
Procedure: as §1
(§2) The next set of experiments was designed to assess the selective binding of the test compounds to 5-HT receptors. ICI-848, ICI-1259, and ICI-1260 were tested against fluphenazine (ICI-1175) to determine selective binding to 5-HT receptors.

5-HT2A receptor = 5-HT2A receptor (Homo sapiens, UniProt P28223); test: 5-HT2A receptor binding; settings: versus fluphenazine (ICI-1175), FIG. 8
5-HT2A receptor, sequence (P28223 whole entry): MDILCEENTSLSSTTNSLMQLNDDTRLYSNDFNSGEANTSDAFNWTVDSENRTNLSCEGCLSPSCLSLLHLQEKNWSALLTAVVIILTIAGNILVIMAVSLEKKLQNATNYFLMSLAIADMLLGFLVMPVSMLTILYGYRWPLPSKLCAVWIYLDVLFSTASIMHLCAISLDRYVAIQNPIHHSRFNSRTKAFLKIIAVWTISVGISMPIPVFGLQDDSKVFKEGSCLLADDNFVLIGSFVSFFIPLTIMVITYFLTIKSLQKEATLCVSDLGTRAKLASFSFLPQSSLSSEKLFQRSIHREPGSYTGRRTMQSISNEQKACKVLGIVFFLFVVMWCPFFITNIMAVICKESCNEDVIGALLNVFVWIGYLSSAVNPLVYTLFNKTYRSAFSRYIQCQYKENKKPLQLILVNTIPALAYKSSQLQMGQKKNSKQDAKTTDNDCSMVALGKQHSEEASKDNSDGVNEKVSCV
Procedure: as §1
(§3) The experiments include contacting a serotonin type 1B, 2A, 2B, 2C, 3, 4, 6, and 7 receptor with a test compound and comparing the level of binding of serotonin or a control ligand with that serotonin type 1B, 2A, 2B, 2C, 3, 4, 6, and 7 receptor with the level of serotonin binding or control ligand binding with an otherwise identical serotonin type 1B, 2A, 2B, 2C, 3, 4, 6, and 7 receptor not contacted with the test compound. […] The skilled artisan would also appreciate, in view of the disclosure provided herein, that standard binding assays known in the art, or those to be developed in the future, can be used to assess the binding of serotonin or a control ligand with a serotonin type 1B. 2A, 2B, 2C, 3, 4, 6, and 7 receptor in the presence or absence of the test compound to identify a useful compound.
as §2

5-HT4 receptor = 5-HT4 receptor (Homo sapiens, UniProt Q13639); test: 5-HT4 receptor binding; settings: versus fluphenazine (ICI-1175), FIG. 8
5-HT4 receptor, sequence (Q13639 whole entry): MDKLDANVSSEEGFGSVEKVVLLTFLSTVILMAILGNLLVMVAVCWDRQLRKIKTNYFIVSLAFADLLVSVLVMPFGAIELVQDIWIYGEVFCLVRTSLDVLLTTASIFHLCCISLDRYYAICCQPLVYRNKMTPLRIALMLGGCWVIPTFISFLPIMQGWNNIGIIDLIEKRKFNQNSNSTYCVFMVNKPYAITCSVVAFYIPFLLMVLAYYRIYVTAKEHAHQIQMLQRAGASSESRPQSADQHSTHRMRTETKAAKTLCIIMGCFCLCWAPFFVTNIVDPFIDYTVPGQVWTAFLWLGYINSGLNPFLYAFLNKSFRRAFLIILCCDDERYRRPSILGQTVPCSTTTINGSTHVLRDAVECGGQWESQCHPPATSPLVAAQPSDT
Procedure: as §1, §3, §2
The next set of experiments was designed to assess the Ki values of the tested compounds.

FC(F)(F)c1ccc2c(c1)N(CCCN1CCNCC1)c1ccccc1S2 [ICI-00685]
Brain Penetration Classification (MDR1-MDCK [1]): Low (3) A-B Papp > 3.0 and Efflux Ratio > 10: Low)

CN(C)S(=O)(=O)c1ccc2c(c1)N(CCCN1CCN(CCN)CC1)c1ccccc1S2 [ICI-00715]
ability to inhibit proliferation of RPMI cells [2]: able to inhibit the proliferation of RPMI cells | reduction of ankle diameter [3]: decrease the ankle diameter to a desirable level | efficacy in reducing ankle diameter compared with Enbrel [3]: more effective in reducing the ankle diameter than Enbrel | toxicity (Female Lewis rats): not toxic

NCC(=O)NCCN1CCN(CCCN2c3ccccc3Sc3ccc(C(F)(F)F)cc32)CC1 [ICI-00735]
reduction of ankle diameter [3]: did not have a desirable reduction of ankle diameter | binding to histamine type 1 receptor [4]: able to bind histamine type 1 receptor | % Recovery A-B (MDR1-MDCK [5]): 47% | % Recovery B-A (MDR1-MDCK [5]): 33% | Papp A-B (MDR1-MDCK [5]): 0.23 ×10⁻⁶ cm/s | Papp B-A (MDR1-MDCK [5]): 28.6 ×10⁻⁶ cm/s | Efflux (MDR1-MDCK [5]; dog): 124

CN(C)CCN1CCN(CCCN2c3ccccc3Sc3ccc(C(F)(F)F)cc32)CC1 [ICI-00738]
toxicity (Female Lewis rats): not toxic

CNCC(=O)NCCN1CCN(CCCN2c3ccccc3Sc3ccc(C(F)(F)F)cc32)CC1 [ICI-00758]
toxicity (Female Lewis rats): not toxic | Brain Penetration Classification (MDR1-MDCK [1]): Low (3) A-B Papp > 3.0 and Efflux Ratio > 10: Low)

NCCCN1CCN(CCCN2c3ccccc3Sc3ccc(C(F)(F)F)cc32)CC1 [ICI-00760]
Brain Penetration Classification (MDR1-MDCK [1]): Low (3) A-B Papp > 3.0 and Efflux Ratio > 10: Low)

NCC(N)C(=O)NCCN1CCN(CCCN2c3ccccc3Sc3ccc(C(F)(F)F)cc32)CC1 (stereo not shown) [ICI-761]
ability to inhibit proliferation of RPMI cells [2]: able to inhibit the proliferation of RPMI cells | reduction of ankle diameter [3]: decrease the ankle diameter to a desirable level | efficacy in reducing ankle diameter compared with Enbrel [3]: more effective in reducing the ankle diameter than Enbrel

NCC(=O)NCCCN1CCN(CCCN2c3ccccc3Sc3ccc(C(F)(F)F)cc32)CC1 [ICI-00822]
Brain Penetration Classification (MDR1-MDCK [1]): Low (3) A-B Papp > 3.0 and Efflux Ratio > 10: Low)

CNCC(=O)NCCCN1CCN(CCCN2c3ccccc3Sc3ccc(C(F)(F)F)cc32)CC1 [ICI-00823]
reduction of ankle diameter [3]: decrease the ankle diameter to a desirable level | toxicity (Female Lewis rats): not toxic

FC(F)(F)c1ccc2c(c1)N(CCCC1CCNCC1)c1ccccc1S2 [ICI-00824]
toxicity (Female Lewis rats): not toxic

NCCN1CCC(CCCN2c3ccccc3Sc3ccc(C(F)(F)F)cc32)CC1 [ICI-00846]
Brain Penetration Classification (MDR1-MDCK [1]): Low (3) A-B Papp > 3.0 and Efflux Ratio > 10: Low)

NCCCN1CCC(CCCN2c3ccccc3Sc3ccc(C(F)(F)F)cc32)CC1 [ICI-00847]
ability to inhibit proliferation of RPMI cells ([2]; listed as ICI-847): able to inhibit the proliferation of RPMI cells | reduction of ankle diameter ([3]; listed as ICI-847): decrease the ankle diameter to a desirable level; also recorded: most desirable reduction of ankle diameter | efficacy in reducing ankle diameter compared with Enbrel [3]: more effective in reducing the ankle diameter than Enbrel | Brain Penetration Classification (MDR1-MDCK [1]): Low (3) A-B Papp > 3.0 and Efflux Ratio > 10: Low)

NCC(=O)NCCN1CCC(CCCN2c3ccccc3Sc3ccc(C(F)(F)F)cc32)CC1 [ICI-00848]
ability to inhibit proliferation of RPMI cells [2]: able to inhibit the proliferation of RPMI cells | reduction of ankle diameter ([3]; listed as ICI-848): decrease the ankle diameter to a desirable level; also recorded: most desirable reduction of ankle diameter | efficacy in reducing ankle diameter compared with Enbrel [3]: more effective in reducing the ankle diameter than Enbrel | toxicity (Female Lewis rats): not toxic | binding to 5-HT1A receptor compared to fluphenazine (5-HT1A receptor): decreased binding | binding to 5-HT2A receptor compared to fluphenazine (5-HT2A receptor): decreased binding | binding to 5-HT4 receptor compared to fluphenazine (5-HT4 receptor): increased binding | binding to histamine type 1 receptor [4]: able to bind histamine type 1 receptor

CNCC(=O)NCCN1CCC(CCCN2c3ccccc3Sc3ccc(C(F)(F)F)cc32)CC1 [ICI-00849]
ability to inhibit proliferation of RPMI cells [2]: able to inhibit the proliferation of RPMI cells | reduction of ankle diameter ([3]; listed as ICI-849): decrease the ankle diameter to a desirable level; also recorded: most desirable reduction of ankle diameter | efficacy in reducing ankle diameter compared with Enbrel [3]: more effective in reducing the ankle diameter than Enbrel | binding to histamine type 1 receptor [4]: able to bind histamine type 1 receptor | Brain Penetration Classification (MDR1-MDCK [1]): Low (3) A-B Papp > 3.0 and Efflux Ratio > 10: Low)

CC(=O)NCCN1CCC(CCCN2c3ccccc3Sc3ccc(C(F)(F)F)cc32)CC1 [ICI-00850]
Brain Penetration Classification (MDR1-MDCK [1]): Low (3) A-B Papp > 3.0 and Efflux Ratio > 10: Low)

FC(F)(F)c1ccc2c(c1)N(CCCCN1CCNCC1)c1ccccc1S2 [ICI-00890]
Brain Penetration Classification (MDR1-MDCK [1]): Low (3) A-B Papp > 3.0 and Efflux Ratio > 10: Low)

N#Cc1ccc2c(c1)N(CCCN1CCN(CCN)CC1)c1ccccc1S2 [ICI-00894]
Brain Penetration Classification (MDR1-MDCK [1]): Low (3) A-B Papp > 3.0 and Efflux Ratio > 10: Low)

OCCN1CCN(CCCN2c3ccccc3Sc3ccc(C(F)(F)F)cc32)CC1 [ICI-01175, fluphenazine, reference compound]
Brain Penetration Classification (MDR1-MDCK [1]): High (1) A-B Papp > 3.0 and Efflux Ratio < 3.0: High)

OCCN1CCN(CCCN2c3ccccc3Sc3ccc(C(F)(F)F)cc32)CC1 [ICI-01176]
% Recovery A-B (MDR1-MDCK [1]; MDR1-MDCK, A-B direction): 35% | Papp A-B (MDR1-MDCK [1]; MDR1-MDCK, A-B direction): 0.78 ×10⁻⁶ cm/s | % Recovery B-A (MDR1-MDCK [1]; MDR1-MDCK, B-A direction): 55% | Papp B-A (MDR1-MDCK [1]; MDR1-MDCK, B-A direction): 34.2 ×10⁻⁶ cm/s | Efflux (MDR1-MDCK [1]; MDR1-MDCK, efflux ratio): 44 | Brain Penetration Classification (MDR1-MDCK [1]): Low (3) A-B Papp > 3.0 and Efflux Ratio > 10: Low)

CN(C)CCCN1CCC(CCCN2c3ccccc3Sc3ccc(C(F)(F)F)cc32)CC1 [ICI-01505]
Brain Penetration Classification (MDR1-MDCK [1]): Low (3) A-B Papp > 3.0 and Efflux Ratio > 10: Low)
